# Source: US20230390319A1, “INTERFERON GENE STIMULATOR COMPOSITION COMPRISING INDOLIZINE DERIVATIVE AS ACTIVE INGREDIENT” (AJOU UNIVERSITY INDUSTRY-ACADEMIC COOPERATION FOUNDATION, priority 2020, published 2023)
# Where two headings read alike, the source gives them in different places.
# Test: PK profiles after IV and PO administration to BALB/c mice
# Assay type: in vivo
# Settings: BALB/c, mouse, blood; for concentration at 0.5 h: 0.50 h; for AUC(0-t): read-out: AUClast AUC(0-t); for C0: read-out: C0; for Cmax: read-out: Cmax; for MRT inf: read-out: MRTINF_obs MRT(0-∞); for MRT last: read-out: MRTlast MRT(0-t)
# Excerpt: The pharmacokinetics and oral bioavailability of Compound 42 were investigated in mice following single intravenous (IV) injection and oral administration (PO).
# [1] = iv, 5 mg/kg, IV 5 mg/kg, individual animals 101-103, read-out: concentration in blood
# [2] = iv, 5 mg/kg, IV 5 mg/kg, mean, read-out: concentration in blood, Mean IV
# [3] = iv, 5 mg/kg, IV 5.0 mg/kg, individual animals
# [4] = iv, 5 mg/kg, IV 5.0 mg/kg, mean n=3
# [5] = po, 20 mg/kg, PO 20 mg/kg, individual animals 201-203, read-out: concentration in blood
# [6] = po, 20 mg/kg, PO 20 mg/kg, mean, read-out: concentration in blood, Mean PO
smiles,measurement,setting,value
CC(=O)c1ccc(-c2cc(C(=O)c3ccc(C(F)(F)F)cc3)n3ccccc23)cc1 [Compound 42],bioavailability,"20 mg/kg, PO administration of 20 mpk",~18%
same,concentration at 0.083 h,[1],2590 ng/mL
same,concentration at 0.083 h,[2],2750 ng/mL
same,concentration at 0.25 h,[1],1520 ng/mL
same,concentration at 0.25 h,[2],1420 ng/mL
same,concentration at 0.5 h,[1],803 ng/mL
same,concentration at 0.5 h,[2],820 ng/mL
same,concentration at 1 h,[1],379 ng/mL
same,concentration at 1 h,[2],350 ng/mL
same,concentration at 4 h,[1],97.9 ng/mL
same,concentration at 4 h,[2],107 ng/mL
same,concentration at 24 h,[1],29.2 ng/mL
same,concentration at 24 h,[2],34.9 ng/mL
same,AUC(0-inf),"iv, 5 mg/kg, IV 5.0 mg/kg, individual animals, read-out: AUCINF_obs AUC(0-∞)",3420 ng·h/mL
same,AUC(0-t),[3],3160 ng·h/mL
same,C0,[3],3380 ng/mL
same,clearance,"iv, 5 mg/kg, IV 5.0 mg/kg, individual animals, read-out: Cl_obs Cl (converted)",24.4 mL/min/kg
same,Cmax,[3],2590 ng/mL
same,half-life,"iv, 5 mg/kg, IV 5.0 mg/kg, individual animals, read-out: HL_Lambda_z T1/2 (converted)",6.03 h
same,MRT inf,[3],6.07 h
same,MRT last,[3],3.93 h
same,Vd,"iv, 5 mg/kg, IV 5.0 mg/kg, individual animals, read-out: Vss_obs Vss",8.88 L/kg
same,Vd,"iv, 5 mg/kg, IV 5.0 mg/kg, individual animals, read-out: Vz_obs Vz",12.7 L/kg
same,AUC(0-inf),"iv, 5 mg/kg, IV 5.0 mg/kg, mean n=3, read-out: AUCINF_obs AUC(0-∞)",3700 ng·h/mL
same,AUC(0-t),[4],3300 ng·h/mL
same,C0,[4],3830 ng/mL
same,clearance,"iv, 5 mg/kg, IV 5.0 mg/kg, mean n=3, read-out: Cl_obs Cl (converted)",22.7 mL/min/kg
same,Cmax,[4],2750 ng/mL
same,half-life,"iv, 5 mg/kg, IV 5.0 mg/kg, mean n=3, read-out: HL_Lambda_z T1/2 (converted)",7.76 h
same,MRT inf,[4],7.6 h
same,MRT last,[4],4.27 h
same,Vd,"iv, 5 mg/kg, IV 5.0 mg/kg, mean n=3, read-out: Vss_obs Vss",10.2 L/kg
same,Vd,"iv, 5 mg/kg, IV 5.0 mg/kg, mean n=3, read-out: Vz_obs Vz",15 L/kg
same,AUC(0-inf),"iv, 5 mg/kg, IV administration of 5 mg/kg (mpk), read-out: AUC∞",3700 ng·h/mL
same,Cmax,"iv, 5 mg/kg, IV administration of 5 mg/kg (mpk)",2750 ng/mL
same,half-life,"iv, 5 mg/kg, IV administration of 5 mg/kg (mpk), read-out: half-life (converted)",~7.76 h
same,clearance,"iv, 5 mg/kg, IV administration, read-out: mean blood clearance",22.7 mL/min/kg
same,Vd,"iv, 5 mg/kg, IV administration, read-out: mean volume of distribution at steady state (Vss)",10.2 L/kg
same,concentration at 0.25 h,[5],75.3 ng/mL
same,concentration at 0.25 h,[6],89.9 ng/mL
same,concentration at 0.5 h,[5],139 ng/mL
same,concentration at 0.5 h,[6],156 ng/mL
same,concentration at 1 h,[5],211 ng/mL
same,concentration at 1 h,[6],225 ng/mL
same,concentration at 3 h,[5],149 ng/mL
same,concentration at 3 h,[6],161 ng/mL
same,concentration at 6 h,[5],98.7 ng/mL
same,concentration at 6 h,[6],111 ng/mL
